Structures are written as SMILES. ≈ marks a conversion by molar mass, not a printed value.

Type in all cases: cell-based
Assay [1] relates to S. epidermidis, culture 12084. Description: MIC, standard agar dilution, S. epidermidis culture 12084. The conditions noted are these: Staphylococcus epidermidis, CULTURE12084, Mueller Hinton agar, overnight at 35 C, read-out: SEPI 12084 MIC. On the procedure: (§1) The in vitro MICs of test compounds are determined by a standard agar dilution method. A stock drug solution of each analog is prepared in the preferred solvent, usually DMSO:H2 O(1:3). Serial 2-fold dilutions of each sample are made using 1.0 ml aliquots of sterile distilled water. To each 1.0 ml aliquot of drug is added 9 ml of molten Mueller Hinton agar medium. The drug-supplemented agar is mixed, poured into 15×100 mm petri dishes, and allowed to solidify and dry prior to inoculation.
(§2) Vials of each of the test organisms are maintained frozen in the vapor phase of a liquid nitrogen freezer. Test cultures are grown overnight at 35 C. on the medium appropriate for the organism. Colonies are harvested with a sterile swab, and cell suspensions are prepared in Trypticase Soy broth (TSB) to equal the turbidity of a 0.5 McFarland standard. A 1:20 dilution of each suspension is made in TSB. The plates containing the drug supplemented agar are inoculated with a 0.001 ml drop of the cell suspension using a Steers replicator, yielding approximately 10^4 to 10^5 cells per spot. The plates are incubated overnight at 35 C.
(§3) Following incubation the Minimum Inhibitory Concentration (MIC μg/ml), the lowest concentration of drug that inhibits visible growth of the organism, is read and recorded.
^b) S. epidermidis, culture 12084

The subject of assay [2] is H. influenzae, culture 30063. Briefly: MIC, standard agar dilution, H. influenzae culture 30063. The conditions noted are these: Haemophilus influenzae, CULTURE30063, Mueller Hinton agar, overnight at 35 C, read-out: HINF 30063 MIC. On the procedure: as §1, §2, §3
^e) H. influenzae, culture 30063

The subject of assay [3] is M. catarrhalis, culture 30610. Briefly: MIC, standard agar dilution, M. catarrhalis culture 30610. Particulars: Moraxella catarrhalis, CULTURE30610, Mueller Hinton agar, overnight at 35 C, read-out: MCAT 30610 MIC. On the procedure:
as §1, §2, §3
^f) M. catarrhalis, culture 30610

A further assay has as its system S. aureus, culture 9213. Briefly: MIC, standard agar dilution, S. aureus culture 9213. The conditions noted are these: Staphylococcus aureus, CULTURE9213, Mueller Hinton agar, overnight at 35 C, read-out: SAUR 9213 MIC. Here is the method:
as §1, §2, §3
^a) S. aureus, culture 9213

The test system of assay [4] is E. faecalis, culture 9217. Description: MIC, standard agar dilution, E. faecalis culture 9217. The conditions noted are these: Enterococcus faecalis, CULTURE9217, Mueller Hinton agar, overnight at 35 C, read-out: EFAE 9217 MIC. On the procedure: as §1, §2, §3
^c) E. faecalis, culture 9217

Assay [5] concerns S. pueumoniae, culture 9912. Description: MIC, standard agar dilution, S. pueumoniae culture 9912. Particulars: Mueller Hinton agar, overnight at 35 C, read-out: SPNE 9912 MIC. On the procedure: as §1, §2, §3
^d) S. pueumoniae, culture 9912

For `CC(=O)NC[C@H]1CN(c2ccc(N3CCNC(=O)CC3)c(F)c2)C(=O)O1` [Example 1, (S)-N-[[3-[3-fluoro-4-(1,2,3,4,6,7-hexahydro-5-oxo-1,4-diazepin-1-yl)phenyl]-2-oxo-5-oxazolidinyl]methyl]acetamide], the MIC was 1 µg/mL (≈ 2.74 µM) in assay [1]; 8 µg/mL (≈ 22 µM) in assay [2]; 8 µg/mL (≈ 22 µM) in assay [3]; 4 µg/mL (≈ 11 µM) in the assay with S. aureus, culture 9213; 4 µg/mL (≈ 11 µM) in assay [4]; 0.5 µg/mL (≈ 1.37 µM) in assay [5].
As to `CC(=S)NC[C@H]1CN(c2ccc(N3CCC(=O)N(C)CC3)c(F)c2)C(=O)O1` [Example 4, (S)-N-[[3-[3-fluoro-4-(1,2,3,4,6,7-hexahydro-4-methyl-5-oxo-1,4-diazepin-1-yl)phenyl]-2-oxo-5-oxazolidinyl]methyl]-thioacetamide], the MIC in assay [1] was < 0.5 µg/mL; in assay [2], 8 µg/mL (≈ 20.3 µM); in assay [3], 2 µg/mL (≈ 5.07 µM); with S. aureus, culture 9213, 1 µg/mL (≈ 2.54 µM); in assay [4] it was 1 µg/mL (≈ 2.54 µM); in assay [5] it was < 0.5 µg/mL.
In the case of `CC(=O)NC[C@H]1CN(c2ccc(N3CCC(=O)N(C)CC3)c(F)c2)C(=O)O1` [Example 3, (S)-N-[[3-[3-fluoro-4-(1,2,3,4,6,7-hexahydro-4-methyl-5-oxo-1,4-diazepin-1-yl)phenyl]-2-oxo-5-oxazolidinyl]methyl]-acetamide], the MIC in assay [1] is 1 µg/mL (≈ 2.64 µM); in assay [2], 32 µg/mL (≈ 84.6 µM); in assay [3], 8 µg/mL (≈ 21.1 µM); in the assay on S. aureus, culture 9213 it was 4 µg/mL (≈ 10.6 µM); in assay [4] it was 4 µg/mL (≈ 10.6 µM); in assay [5], 1 µg/mL (≈ 2.64 µM).

These data come from patent publication US5998406A, “Oxazolidinone derivatives and pharmaceutical compositions” (Pharmacia & Upjohn Company, priority 1998, dated 1999).
